US20240158446A1, “CYCLIC COMPOUND HAVING SELECTIVE INHIBITORY ACTION ON KRAS OVER HRAS AND NRAS” (CHUGAI SEIYAKU KABUSHIKI KAISHA, priority 2021, published 2024)
Like-named read-outs stand apart in the source and are kept apart here. Where a SMILES comes first, the peptide text is derived from it. Bridges are numbered along the chain shown (N, C = ends). [ ]: non-standard residue; d: D form. The star is where a group is joined. hPhe(3,5-F2-4-CF3) = N[C@@H](CCc1cc(F)c(C(F)(F)F)c(F)c1)C(=O)O; hPhe(3-Cl-4-CF3) = N[C@@H](CCc1ccc(C(F)(F)F)c(Cl)c1)C(=O)O; NPrPhe(4-CF3) = CCCN[C@@H](Cc1ccc(C(F)(F)F)cc1)C(=O)O; NMeAbu(4,4,4-F3) = CN[C@@H](CC(F)(F)F)C(=O)O; NMeGly(cPent) = CN[C@H](C(=O)O)C1CCCC1; Pro(4,4-F2) = O=C(O)[C@@H]1CC(F)(F)CN1; NMeD = CN[C@@H](CC(=O)O)C(=O)O; NMeL = CN[C@@H](CC(C)C)C(=O)O; αMeL = CC(C)C[C@](C)(N)C(=O)O; Morpholide = C1CN(*)CCO1; NMeA = CN[C@@H](C)C(=O)O; Ac5c = NC1(C(=O)O)CCCC1; Aze = O=C(O)[C@@H]1CCN1; Ac4c = NC1(C(=O)O)CCC1; NPrGly = CCCNCC(=O)O; Sar = CNCC(=O)O

Columns and labels:
[1] = biological target: GDP-bound NRAS wild-type protein (Homo sapiens, UniProt P01111); assay: Binding to NRAS by surface plasmon resonance (SPR), Single Cycle Kinetics; details: SPR, GDP-bound NRAS wild-type protein vs GDP-bound KRAS wild-type protein
Chain of GDP-bound NRAS wild-type protein (P01111 whole entry): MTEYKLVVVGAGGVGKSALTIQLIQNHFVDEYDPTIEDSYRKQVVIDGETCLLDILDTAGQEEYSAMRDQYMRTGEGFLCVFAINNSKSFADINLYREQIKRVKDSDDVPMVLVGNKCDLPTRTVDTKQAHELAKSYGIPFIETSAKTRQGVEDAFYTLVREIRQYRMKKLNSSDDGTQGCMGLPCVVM

[2] = biological target: GDP-bound HRAS wild-type protein (Homo sapiens, UniProt P01112); assay: Binding to HRAS by surface plasmon resonance (SPR), Single Cycle Kinetics; details: SPR, GDP-bound HRAS wild-type protein vs GDP-bound KRAS wild-type protein
Chain of GDP-bound HRAS wild-type protein (P01112 whole entry): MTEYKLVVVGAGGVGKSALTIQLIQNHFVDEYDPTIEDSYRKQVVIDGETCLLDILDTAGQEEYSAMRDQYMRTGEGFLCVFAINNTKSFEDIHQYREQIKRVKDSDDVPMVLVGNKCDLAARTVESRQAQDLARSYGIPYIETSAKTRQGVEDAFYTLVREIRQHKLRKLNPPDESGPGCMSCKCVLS

[3] = biological target: GDP-bound KRAS wild-type protein (Homo sapiens, UniProt P01116); assay: Binding to KRAS by surface plasmon resonance (SPR), Single Cycle Kinetics; details: GDP-bound KRAS wild-type protein, read-out: KRAS KD
Chain of GDP-bound KRAS wild-type protein (P01116 whole entry): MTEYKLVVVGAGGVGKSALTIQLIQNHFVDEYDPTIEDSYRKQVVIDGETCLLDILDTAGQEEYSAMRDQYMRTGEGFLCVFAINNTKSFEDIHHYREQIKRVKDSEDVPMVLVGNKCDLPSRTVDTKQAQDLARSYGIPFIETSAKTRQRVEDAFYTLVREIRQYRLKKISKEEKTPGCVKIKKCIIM

[4] = SPR Single Cycle Kinetics, 1:1 binding model

SMILES	Kd ([3]; SPR, Single Cycle Kinetics)	Kd [3, 4]	NRAS/KRAS (ratio of KD value for NRAS to KD value for KRAS) [1]	HRAS/KRAS (ratio of KD value for HRAS to KD value for KRAS) [2]	also measured
CCCN1CC(=O)NC2(CCCC2)C(=O)N(C)[C@@H](C2CCCC2)C(=O)N(C)[C@H](C(=O)N2CCOCC2)CC(=O)N(C)[C@@H](CC(C)C)C(=O)N[C@@H]([C@@H](C)CC)C(=O)N(C)[C@@H](C)C(=O)N2CC[C@H]2C(=O)N(CCC)[C@@H](Cc2ccc(C(F)(F)F)cc2)C(=O)N(C)CC(=O)N[C@@H](CCc2ccc(C(F)(F)F)c(Cl)c2)C1=O [PP0288] ([NMeL]I[NMeA][Aze][NPrPhe(4-CF3)][Sar][hPhe(3-Cl-4-CF3)][NPrGly][Ac5c][NMeGly(cPent)][NMeD]-Morpholide; lactam N-11)	–	0.42 nM	C (A compound having a KD ratio of 0.1 or more and less than 3 is denoted as C)	B (a compound having 3 or more and less than 10 is denoted as B)	–
CCCN1C(=O)[C@@H]2CCN2C(=O)CN(C)C(=O)[C@H]([C@@H](C)CC)NC(=O)[C@H](CC(C)C)N(C)C(=O)C[C@@H](C(=O)N2CCOCC2)N(C)C(=O)[C@H](CC(F)(F)F)N(C)C(=O)C2(CCCC2)NC(=O)[C@@H]2CCCN2C(=O)[C@H](CCc2cc(F)c(C(F)(F)F)c(F)c2)NC(=O)CN(C)C(=O)[C@@H]1Cc1ccc(C(F)(F)F)cc1 [PP0803] ([NMeL]I[Sar][Aze][NPrPhe(4-CF3)][Sar][hPhe(3,5-F2-4-CF3)]P[Ac5c][NMeAbu(4,4,4-F3)][NMeD]-Morpholide; lactam N-11)	–	1.7 nM	–	–	NRAS/KRAS (ratio of KD value with respect to NRAS to KD value with respect to KRAS) [1]: C (A compound having a KD ratio of 0.1 or more and less than 3 is denoted as C); HRAS/KRAS (ratio of KD value with respect to HRAS to KD value with respect to KRAS) [2]: B (a compound having 3 or more and less than 10 is denoted as B)
CCO[C@@H]1C[C@H]2C(=O)NC3(CCC3)C(=O)N(C)[C@@H](C(C)(C)C)C(=O)N(C)[C@H](C(=O)N3CCOCC3)CC(=O)N(C)[C@@H](CC(C)C)C(=O)N[C@@H]([C@@H](C)CC)C(=O)N(C)CC(=O)N(C)[C@H]3CCCCCN(C3=O)[C@@H](Cc3ccc(C(F)(F)F)cc3)C(=O)N(C)CC(=O)N[C@@H](CCc3cc(F)c(C(F)(F)F)c(F)c3)C(=O)N2C1 [PP0823]	0.82 nM	–	A (a compound having 10 or more and less than 20 is denoted as A)	B (a compound having 3 or more and less than 10 is denoted as B)	–
CCCN1C(=O)CN(C)C(=O)CN(C)C(=O)[C@H]([C@@H](C)CC)NC(=O)[C@H](CC(C)C)N(C)C(=O)C[C@@H](C(=O)N(C)C)N(C)C(=O)[C@H](C2CCCC2)N(C)C(=O)[C@](C)(CC(C)C)NC(=O)[C@@H]2CCCN2C(=O)[C@H](CCc2cc(F)c(C(F)(F)F)c(F)c2)NC(=O)CN(C)C(=O)[C@@H]1Cc1ccc(C(F)(F)F)cc1 [PP0738] ([NMeL]I[Sar][Sar][NPrPhe(4-CF3)][Sar][hPhe(3,5-F2-4-CF3)]P[αMeL][NMeGly(cPent)][NMeD]-NMe2; lactam N-11)	–	0.64 nM	–	–	NRAS/KRAS (ratio of KD value with respect to NRAS to KD value with respect to KRAS) [1]: B (a compound having 3 or more and less than 10 is denoted as B); HRAS/KRAS (ratio of KD value with respect to HRAS to KD value with respect to KRAS) [2]: B (a compound having 3 or more and less than 10 is denoted as B)
CCO[C@@H]1C[C@H]2C(=O)NC3(CC(F)(F)C3)C(=O)N(C)[C@@H](C3CCCC3)C(=O)N(C)C(C3CCCCC3)CC(=O)N(C)[C@@H](COC)C(=O)N[C@@H]([C@@H](C)CC)C(=O)N(C)CC(=O)N(C)[C@H]3C/C=C\CCN(C3=O)[C@@H](Cc3ccc(C(F)(F)F)cc3)C(=O)N(C)CC(=O)N[C@@H](CCc3cc(F)c(C(F)(F)F)c(F)c3)C(=O)N2C1 (stereo partly drawn) [PP1586]	–	–	–	–	NRAS/KRAS (ratio of KD value for NRAS to KD value for KRAS) ([1]; KD ratio class): A (a compound having 10 or more and less than 20 is denoted as A); HRAS/KRAS (ratio of KD value for HRAS to KD value for KRAS) ([2]; KD ratio class): A (a compound having 10 or more and less than 20 is denoted as A); Kd ([3]; SPR, Single Cycle Kinetics, 1:1 binding model): 0.76 nM
CCCN1C(=O)[C@@H]2CCN2C(=O)[C@H](C)N(C)C(=O)[C@H]([C@@H](C)CC)NC(=O)[C@H](CC(C)C)N(C)C(=O)C[C@@H](C(=O)N2CCOCC2)N(C)C(=O)[C@H](C2CCCC2)N(C)C(=O)C2(CCC2)NC(=O)[C@@H]2CC(F)(F)CN2C(=O)[C@H](CCc2ccc(C(F)(F)F)c(Cl)c2)NC(=O)CN(C)C(=O)[C@@H]1Cc1ccc(C(F)(F)F)cc1 [PP0208] ([NMeL]I[NMeA][Aze][NPrPhe(4-CF3)][Sar][hPhe(3-Cl-4-CF3)][Pro(4,4-F2)][Ac4c][NMeGly(cPent)][NMeD]-Morpholide; lactam N-11)	–	0.26 nM	C (A compound having a KD ratio of 0.1 or more and less than 3 is denoted as C)	C (A compound having a KD ratio of 0.1 or more and less than 3 is denoted as C)	–

Second part, led by results:

Kd ([3]; SPR, Single Cycle Kinetics)	Kd [3, 4]	SMILES	NRAS/KRAS (ratio of KD value for NRAS to KD value for KRAS) [1]	HRAS/KRAS (ratio of KD value for HRAS to KD value for KRAS) [2]	also measured
0.24 nM	–	CCC[C@H]1C(=O)N[C@@H](C2CCCC2)C(=O)N(C)CC(=O)N(C)[C@H]2C/C=C\CCN(C2=O)[C@@H](Cc2ccc(C)cc2)C(=O)N(C)CC(=O)N[C@@H](CCc2ccc(C(F)(F)F)c(Cl)c2)C(=O)N2C[C@H](OCC)C[C@H]2C(=O)NC2(CC(C)(C)C2)C(=O)N(C)[C@@H](CC(C)(C)C)C(=O)N(C)[C@H](C(=O)N(C)C)CC(=O)N1C [PP2196]	A (a compound having 10 or more and less than 20 is denoted as A)	B (a compound having 3 or more and less than 10 is denoted as B)	–
0.24 nM	–	CCCO[C@@H]1CCN2C(=O)[C@H](CCc3cc(F)c(C(F)(F)F)c(F)c3)NC(=O)CN(C)C(=O)[C@H](Cc3ccc(C(F)(F)F)cc3)N3CCCC[C@@H](C3=O)N(C)C(=O)CN(C)C(=O)[C@H]([C@@H](C)CC)NC(=O)[C@H](CC(C)C)N(C)C(=O)C[C@@H](C(=O)N3CCOCC3)N(C)C(=O)[C@H](C3CCCC3)N(C)C(=O)C3(CCC3)NC(=O)[C@H]12 [PP1080]	B (a compound having 3 or more and less than 10 is denoted as B)	B (a compound having 3 or more and less than 10 is denoted as B)	–
0.33 nM	–	CCO[C@@H]1C[C@H]2C(=O)NC3(CC(C)(C)C3)C(=O)N(C)[C@@H](C(CC)CC)C(=O)N(C)[C@H](C(=O)N(C)C)CC(=O)N(C)[C@@H](CC(C)C)C(=O)N[C@@H]([C@@H](C)CC)C(=O)N(C)CC(=O)N(C)[C@H]3C/C=C\CCN(C3=O)[C@@H](Cc3ccc(C)cc3)C(=O)N(C)CC(=O)N[C@@H](CCc3ccc(C(F)(F)F)c(OC)c3)C(=O)N2C1 [PP2168]	A (a compound having 10 or more and less than 20 is denoted as A)	A (a compound having 10 or more and less than 20 is denoted as A)	–
0.12 nM	–	CC[C@H](C)[C@@H]1NC(=O)[C@H](CC(C)C)N(C)C(=O)C[C@@H](C(=O)N(C)C)N(C)C(=O)[C@H](C2CCCC2)N(C)C(=O)C2(CCCC2)NC(=O)[C@@H]2C[C@H](C)CN2C(=O)[C@H](CCc2cc(F)c(C(F)(F)F)c(F)c2)NC(=O)CN(C)C(=O)[C@H](Cc2ccc(C(F)(F)F)cc2)N2CC/C=C\C[C@@H](C2=O)N(C)C(=O)CN(C)C1=O [PP2268]	A (a compound having 10 or more and less than 20 is denoted as A)	A (a compound having 10 or more and less than 20 is denoted as A)	–
0.038 nM	–	CCO[C@@H]1C[C@H]2C(=O)NC3(CCC3)C(=O)N(C)[C@@H](C3CCCC3)C(=O)N(C)[C@H](C(=O)N(C)C)CC(=O)N(C)[C@@H](CC(C)C)C(=O)N[C@@H]([C@@H](C)CC)C(=O)N(C)CC(=O)N(C)[C@H]3C/C=C\CCN(C3=O)[C@@H](Cc3ccc(C(F)(F)F)cc3)C(=O)N(C)CC(=O)N[C@@H](CCc3cc(F)c(C(F)(F)F)c(F)c3)C(=O)N2C1 [PP1107, (2S,8S,12R,14S,20S,23S,27S,30S,36S,38Z)-20-cyclopentyl-8-[2-[3,5-difluoro-4-(trifluoromethyl)phenyl]ethyl]-12-ethoxy-27-isobutyl-N,N,4,19,22,26,32,35-octamethyl-30-[(1S)-1-methylpropyl]-3,6,9,15,18,21,25,28,31,34,42-undecaoxo-2-[[4-(trifluoromethyl)phenyl]methyl]spiro[1,4,7,10,16,19,22,26,29,32,35-undecazatricyclo[34.5.1.0^10,14]dotetracont-38-ene-17,1′-cyclobutane]-23-carboxamide]	A (a compound having 10 or more and less than 20 is denoted as A)	A (a compound having 10 or more and less than 20 is denoted as A)	–
0.68 nM	–	CCO[C@@H]1C[C@H]2C(=O)NC3(CCC3)C(=O)N(C)[C@@H](C3CCCC3)C(=O)N[C@H](C)CC(=O)N(C)[C@@H](CC)C(=O)N[C@@H]([C@@H](C)CC)C(=O)N(C)CC(=O)N(C)[C@H]3C/C=C\CCN(C3=O)[C@@H](Cc3ccc(C(F)(F)F)cc3)C(=O)N(C)CC(=O)N[C@@H](CCc3cc(F)c(C(F)(F)F)c(F)c3)C(=O)N2C1 [PP1098]	B (a compound having 3 or more and less than 10 is denoted as B)	B (a compound having 3 or more and less than 10 is denoted as B)	–
0.28 nM	–	CC[C@H](C)[C@@H]1NC(=O)[C@H](COC)N(C)C(=O)C[C@@H](C(=O)N2CCOCC2)N(C)C(=O)[C@H](C2CCCC2)N(C)C(=O)C2(CCCC2)NC(=O)[C@@H]2C[C@H](O)CN2C(=O)[C@H](CCc2cc(F)c(C(F)(F)F)c(F)c2)NC(=O)CN(C)C(=O)[C@H](Cc2ccc(C(F)(F)F)cc2)N2CCCCC[C@@H](C2=O)N(C)C(=O)CN(C)C1=O [PP0847]	B (a compound having 3 or more and less than 10 is denoted as B)	B (a compound having 3 or more and less than 10 is denoted as B)	–
